Bridge positions count the residues as written; N and C are the ends. Square brackets hold non-standard residues; d marks the D form. Ends that are not written are not given here. cellulose = not defined here; βAla = NCCC(=O)O

Assay type in all cases: binding
Holding throughout (set-up): key: No binding of immunoglobulin for the defined peptide variant, detection negative: 0; Binding of immunoglobulin for the defined peptide variant, detection positive: +

In one assay the test system is human IgG-Fc. The assay is described as follows: Cellulose-immobilized 13-mer peptide variants incubated with human IgG-Fc, anti-human IgG-AP detection. The following applies: IgG-Fc 1 μg/ml in blocking buffer, 3 h room temperature. The essentials:
(§1)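 Binding is scored by NBT/BCIP precipitate from an AP-conjugated anti-human IgG probe on membrane-synthesized peptides. Targets are applied for 3 h at room temperature in 4% BSA/5% saccharose block: IgG-Fc at 1 μg/ml, serum at 1:10,000.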

In assay [1] the test system is immunoglobulins in human plasma. Nature of the assay: Cellulose-immobilized 13-mer peptide variants incubated with human plasma, anti-human IgG-AP detection. The following applies: human plasma as sample, diluted 1:10,000 in blocking buffer, 3 h room temperature. The essentials:
as §1

For another assay, the system named is serum albumin. Nature of the assay: Cellulose-immobilized 13-mer peptide variants incubated with serum albumin (negative control), anti-human IgG-AP detection. The following applies: blocking buffer without addition, 3 h room temperature. An outline of the steps: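 Read-out was colorimetric NBT/BCIP staining (developing buffer pH 9.5) after alkaline phosphatase-conjugated anti-human IgG at 1.2 μg/ml. Before this, the immobilized peptides had been incubated 3 h at room temperature with 1 μg/ml IgG-Fc, 1:10,000 diluted serum, or albumin-containing blocking buffer without addition.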

Take “08D: cellulose-bound 13-mer variant DCAWHLGDLVWCT-(βA)(βA) (DCAWHLGDLVWCT-{βAla-βAla-cellulose}; disulfide 2-12 (inferred); not fully specified (N-terminus); printed as DCAWHLGDLVWCT-(βA)(βA); reading uncertain)”: the “Result for incubation with human IgG-Fc (immunoglobulin binding detection)” value (“Result for incubation with human IgG-Fc” for short) in the assay on human IgG-Fc is on record as “+”. Moreover, in assay [1], the “Result for incubation with human plasma (immunoglobulin binding detection)” value (from here on “Result for incubation with human plasma”) is “+”. Further, the “Result for incubation with serum albumin (immunoglobulin binding detection)” value (from here on “Result for incubation with serum albumin”) with serum albumin was determined as 0.

For “05F: cellulose-bound 13-mer variant DCAWFLGELVWCT-(βA)(βA) (disulfide 2-12 (inferred); not fully specified (N-terminus, C-terminus); printed as DCAWFLGELVWCT-(βA)(βA); also: cellulose-bound)”, the “Result for incubation with human IgG-Fc” value in the assay with human IgG-Fc stood at 0. Also, in assay [1], the “Result for incubation with human plasma” value was found to be 0. Also, the “Result for incubation with serum albumin” value in the assay on serum albumin is reported as 0.

For the substance “02Q: cellulose-bound 13-mer variant DQAWHLGELVWCT-(βA)(βA) (DQAWHLGELVWCT[βAla][βAla]; not fully specified; printed as DQAWHLGELVWCT-(βA)(βA); also: cellulose-bound)”, in the assay on human IgG-Fc, the “Result for incubation with human IgG-Fc” value came to 0. The “Result for incubation with human plasma” value in assay [1] is recorded as 0. Also, the “Result for incubation with serum albumin” value in the assay with serum albumin is 0.

With “07H: cellulose-bound 13-mer variant DCAWHLHELVWCT-(βA)(βA) (DCAWHLHELVWCT-{βAla-βAla-cellulose}; disulfide 2-12 (inferred); not fully specified (N-terminus); printed as DCAWHLHELVWCT-(βA)(βA); reading uncertain)”, the “Result for incubation with human IgG-Fc” value in the assay on human IgG-Fc came to 0. In addition, the “Result for incubation with human plasma” value in assay [1] is reported as 0. In the assay on serum albumin, the “Result for incubation with serum albumin” value is reported as 0.

“03Y: cellulose-bound 13-mer variant DCYWHLGELVWCT-(βA)(βA) (DCYWHLGELVWCT-{βAla-βAla-cellulose}; disulfide 2-12 (inferred); reading uncertain; also: printed as DCYWHLGELVWCT-(βA)(βA))”: the “Result for incubation with human IgG-Fc” value with human IgG-Fc stood at 0. Further, the “Result for incubation with human plasma” value in assay [1] was found to be 0. Moreover, the “Result for incubation with serum albumin” value with serum albumin was found to be 0.

“06N: cellulose-bound 13-mer variant DCAWHNGELVWCT-(βA)(βA) (DCAWHNGELVWCT-{βAla-βAla-cellulose}; disulfide 2-12 (inferred); not fully specified (N-terminus); printed as DCAWHNGELVWCT-(βA)(βA); reading uncertain)”: the “Result for incubation with human IgG-Fc” value with human IgG-Fc is “+”. Besides, in assay [1], the “Result for incubation with human plasma” value is “+”. The “Result for incubation with serum albumin” value with serum albumin is recorded as 0.

With “10M: cellulose-bound 13-mer variant DCAWHLGELMWCT-(βA)(βA) (DCAWHLGELMWCT-{βAla-βAla-cellulose}; disulfide 2-12 (inferred); reading uncertain; also: printed as DCAWHLGELMWCT-(βA)(βA))”, in the assay with human IgG-Fc, the “Result for incubation with human IgG-Fc” value was 0. Besides, the “Result for incubation with human plasma” value in assay [1] was found to be 0. Moreover, the “Result for incubation with serum albumin” value in the assay on serum albumin turned out to be 0.

For “08S: cellulose-bound 13-mer variant DCAWHLGSLVWCT-(βA)(βA) (DCAWHLGSLVWCT-{βAla-βAla-cellulose}; disulfide 2-12 (inferred); reading uncertain; also: printed as DCAWHLGSLVWCT-(βA)(βA))”, the “Result for incubation with human IgG-Fc” value with human IgG-Fc is recorded as “+”. Moreover, in assay [1], the “Result for incubation with human plasma” value is given as 0. For the same substance, the “Result for incubation with serum albumin” value in the assay with serum albumin turned out to be 0.

With “07C: cellulose-bound 13-mer variant DCAWHLCELVWCT-(βA)(βA) (DCAWHLCELVWCT-{βAla-βAla-cellulose}; not fully specified (N-terminus); printed as DCAWHLCELVWCT-(βA)(βA); cysteine pairing not given here; reading uncertain)”, in the assay with human IgG-Fc, the “Result for incubation with human IgG-Fc” value is given as 0. Further, the “Result for incubation with human plasma” value in assay [1] turned out to be 0. Also, in the assay on serum albumin, the “Result for incubation with serum albumin” value turned out to be 0.

Turning to “01A: cellulose-bound 13-mer variant ACAWHLGELVWCT-(βA)(βA) (ACAWHLGELVWCT-{βAla-βAla-cellulose}; disulfide 2-12 (inferred); reading uncertain; also: printed as ACAWHLGELVWCT-(βA)(βA))”, in the assay with human IgG-Fc, the “Result for incubation with human IgG-Fc” value is “+”. For the same substance, the “Result for incubation with human plasma” value in assay [1] is listed as “+”. In addition, the “Result for incubation with serum albumin” value in the assay with serum albumin came to 0.

For the substance “05G: cellulose-bound 13-mer variant DCAWGLGELVWCT-(βA)(βA) (disulfide 2-12 (inferred); not fully specified (N-terminus, C-terminus); printed as DCAWGLGELVWCT-(βA)(βA); also: cellulose-bound)”, the “Result for incubation with human IgG-Fc” value in the assay on human IgG-Fc turned out to be 0. Further, in assay [1], the “Result for incubation with human plasma” value was 0. The “Result for incubation with serum albumin” value in the assay on serum albumin is listed as 0.

For the substance “08H: cellulose-bound 13-mer variant DCAWHLGHLVWCT-(βA)(βA) (DCAWHLGHLVWCT-{βAla-βAla-cellulose}; disulfide 2-12 (inferred); not fully specified (N-terminus); printed as DCAWHLGHLVWCT-(βA)(βA); reading uncertain)”, the “Result for incubation with human IgG-Fc” value in the assay on human IgG-Fc is listed as “+”. Also, the “Result for incubation with human plasma” value in assay [1] is on record as “+”. Further, the “Result for incubation with serum albumin” value with serum albumin is given as 0.

Consider “06H: cellulose-bound 13-mer variant DCAWHHGELVWCT-(βA)(βA) (DCAWHHGELVWCT-{βAla-βAla-cellulose}; disulfide 2-12 (inferred); not fully specified (N-terminus); printed as DCAWHHGELVWCT-(βA)(βA); reading uncertain)”, for which the “Result for incubation with human IgG-Fc” value with human IgG-Fc is recorded as “+”. In addition, the “Result for incubation with human plasma” value in assay [1] is “+”. Further, the “Result for incubation with serum albumin” value in the assay with serum albumin came out at 0.

Regarding “02R: cellulose-bound 13-mer variant DRAWHLGELVWCT-(βA)(βA) (DRAWHLGELVWCT[βAla][βAla]; not fully specified; printed as DRAWHLGELVWCT-(βA)(βA); also: cellulose-bound)”, the “Result for incubation with human IgG-Fc” value with human IgG-Fc was determined as 0. Moreover, the “Result for incubation with human plasma” value in assay [1] was 0. The “Result for incubation with serum albumin” value with serum albumin was found to be 0.

“04P: cellulose-bound 13-mer variant DCAPHLGELVWCT-(βA)(βA) (disulfide 2-12 (inferred); not fully specified (N-terminus, C-terminus); printed as DCAPHLGELVWCT-(βA)(βA); also: cellulose-bound)”: the “Result for incubation with human IgG-Fc” value with human IgG-Fc amounted to 0. In assay [1], the “Result for incubation with human plasma” value is 0. Moreover, in the assay with serum albumin, the “Result for incubation with serum albumin” value is 0.

Values taken from patent US7205382B2, “Peptides, the production and use thereof for binding immunoglobulins” (Fresenius Medical Care Affina GmbH, priority 2000, dated 2007).
